Read-outs that look alike come from different tables or passages of the source.
Columns and labels:
[1] = tested on: U937 myeloid leukemia cell line; experiment: MTT cytotoxicity, U937; format: cell-based, human; conditions: U937, three days, read-out: EC50 (50% reduction in cell viability)
Description: (§1) The cytotoxic activity of various phospho-derivatives of branched-chain fatty acids (DP-BFAs) was assayed in vitro in cell cultures that include normal and malignant cell types. The following cell systems were used: • Primary fibroblasts (human) • Normal bone marrow (BM) cells (mouse) • Primary bronchial epithelial cells (human, from Clonetics, cat. no. CC-2541) • Caco-2—colon cancer cell line (human, ATTC, HTB-37) • C6 glioma cell line (rat, ATCC, CRL-2199) • Neuro2a—neuroblastoma cell line (mouse, ATCC, CCL-131) • SKBR-3—breast cancer cell line (human, ATTC, HTB-30) • HL60—myeloid leukemia cell line (human, ATCC, CCL-240) • U937—myeloid leukemia cell line (human)
(§2) Cells were seeded in a microtiter plate in MEM containing 2 mM L-glutamine, 100 units/ml penicillin, 100 ug/ml streptomycin and 10% FCS at 37° C. The cultured cells were incubated, during their linear growth phase in the absence (control group) or presence of various DP-BFAs as indicated. The final concentrations of the tested DP-BFAs ranged from 1.5 to 200 microMolars. At the end of the incubation period, which was five days for the bone marrow cells and three days for all the other cell lines, the cytotoxic effect of the added P-BFA on the cells was estimated by using the colorimetric MTT assay. The MTT assay (Mosmann (1983) J. Immunol Methods 65: 55–63) measures mitochondrial reductase activity and serves for quantitative assessment of cellular viability. Drug concentration that causes 50% reduction in cell viability in comparison to the control group, is defined as EC50. The EC50 values of the tested DP-BFA compounds were calculated from dose response curves established for each of the different assayed cell lines.
(§3) Each EC50 value is an average of EC50 values derived from 1–5 independent experiments.

[2] = tested on: Primary bronchial epithelial cells; experiment: MTT cytotoxicity, normal primary epithelial cells; format: cell-based, human; conditions: Normal primary epithel, three days, read-out: EC50 (50% reduction in cell viability)
Description: as §1, §2, §3

[3] = tested on: Normal bone marrow (BM) cells; experiment: MTT cytotoxicity, normal bone marrow cells; format: cell-based, mouse; conditions: five days, read-out: EC50 (50% reduction in cell viability)
Description: as §1, §2, §3

[4] = tested on: HL60 myeloid leukemia cell line; experiment: MTT cytotoxicity, HL60; format: cell-based, human; conditions: HL60, three days, read-out: EC50 (50% reduction in cell viability)
Description: as §1, §2, §3

[5] = tested on: blood brain barrier (BBB); experiment: BBB permeabilization in rats, Evans blue extravasation into brain; format: in vivo, Sprague-Dawley rats; conditions: for MEC (minimal effective concentration): concentration giving 3 μg EB/g brain
From the text: Permeabilization of the BBB by DP-BFA was investigated in rat model system by monitoring accumulation in the brain of two markers: a) Evans blue dye (EB), which rapidly binds in vivo with albumin (NW 70 kD) and is an indicator for paracellular transport; and b) Fluorescein sodium salt (F—Na), MW 376 D, which is transported via the cellular space, and enables monitoring transcellular transport. Upon BBB disruption the Evans blue-albumin complex irreversibly accumulates in the intercellular space of the brain. The much smaller tracer fluorescein may be transported intracellularly to occupy both inter and intracellular space in the brain.
Blood brain barrier permeabilization in Sprague-Dawley rats was induced by brief exposure to DP-BFA. The animals were anesthetized with Rampun-Imalgen and DP-BFA test compounds were administered via the external carotid artery retrograde to the brain (Smith, Q. R. Methods of study. In: Physiology and Pharmacology of the Blood-Brain Barrier. Ed. Bradbury M. W. B. Spinger-Verlag. Berlin-Heidelberg-NY; 1992: 24–52). The pterygo-palathina artery was ligated to avoid escape of infused solutions towards the external head vasculature. DP-BFA solutions were infused over a period of 30 seconds or half an hour, using a Harvard Apparatus Syringe Pump. Blood flow through carotid communis artery was interrupted only at the time of infusion.
All tested DP-BFA molecules were prepared from stock solutions in either water or ethanol by diluting 200–1000 fold into solution of isosmotic mannitol (5%) in Tromethamine buffer (Sigma) or PBS (pH 7.4)
The markers, Evans blue (EB, 25 mg/ml) and fluorescein (F—Na, 12.5 mg/ml), in 1 ml solution, were injected intravenously immediately following administration of the tested DP-BFA, or after a specific time interval if reversibility of action was investigated. Supportive i.v. infusion of F—Na (12.5 mg/ml–100 μl/min) was performed for 8 minutes. Brains were washed with saline solution (60 ml) 10 min after the intracarotid “flash”. Brain ipsilateral and contralateral hemispheres and tumors, where applicable, were homogenized separately with 50% trichloroacetic acid (TCA). The markers concentrations in the cortex and in tumors, where, applicable, were determined spectrofluorometrically (Uyama, O. et al., (1988) J. Cereb. Blood Flow Metab. 8, 282–284: Abraham et al., (1996) Neurosci. Lett. 208, 85–88). The markers content was calculated as μg marker per one-gram brain tissue. Standard error and Student's test for statistical significance were used.
The experiment was carried out on male Sprague-Dawley rats weighing 250–320 g. The procedure described above in Example 17 was followed.
The effect of the tested compounds on the BBB opening was evaluated by two parameters:
a) efficacy—The degree of BBB opening estimated in terms of accumulation of Evans Blue albumin (μg EB/g brain tissue); and
b) potency—measured in terms of EC50 and minimal effective concentration (MEC) values. EC50 is the concentration of a tested compound producing 50% of the maximal effect of Evans Blue extravasation.
The effect of various DP-BFAs on BBB permeability was tested in the model system of rat brains, as described above in Example 17. Efficacy, namely the level of the BBB opening was expressed as the amount of Evans blue accumulated in the brain (μg EB/g brain). Potency of the tested molecules was estimated by their calculated EC50 and minimal effective concentration (MEC) values.

[6] = tested on: SKBR-3 breast cancer cell line; experiment: MTT cytotoxicity, SKBR-3; format: cell-based, human; conditions: three days, read-out: EC50 (50% reduction in cell viability)
Description: as §1, §2, §3

[7] = tested on: blood brain barrier (BBB); experiment: BBB permeability to EB-albumin and Fluorescein in normal rat brains; format: in vivo; conditions: compounds at EC50 (Mannitol 25%); for % EB/g brain: control 0.04 ± 0.01; for Brain fluorescein uptake (% of serum F-Na level): control 0.3 ± 0.08; for Ratio F-Na/EB (mean of individual ratios): control 9.5 ± 1.6
From the text: The effect of various DP-BFAs on BBB permeabilization to molecules of different sizes was examined in vivo in the model system of normal rat brains.
The transport of two markers was followed: a) Evans blue bound to albumin (MW 70 kD) as an indicator for paracellular transport; and b) Fluorescein sodium salt (MW 376 D) that represents small size molecules.
The Evans blue dye (EB) and Fluorescein sodium salt (F—Na) were infused into the artery carotis externa over 30 seconds according to the protocol described above in Example 17. The test compounds were used at their EC50 concentrations. Control animals were treated with vehicle solution.
Evans blue extravasation is expressed as the percentage of the total amount of EB accumulated per one gram of brain tissue. The transport of fluorescein into the brain, which is dependent on the serum concentration of this molecule, is presented as percentage of the F—Na level in the serum.

[8] = tested on: Neuro2a neuroblastoma cell line; experiment: MTT cytotoxicity, Neuro2a; format: cell-based, mouse; conditions: three days, read-out: EC50 (50% reduction in cell viability)
Description: as §1, §2, §3

[9] = tested on: Caco-2 colon cancer cell line; experiment: MTT cytotoxicity, Caco-2; format: cell-based, human; conditions: Caco-2, three days, read-out: EC50 (50% reduction in cell viability)
Description: as §1, §2, §3

[10] = tested on: Chinese hamster ovary (CHO) AA8 cell line; experiment: LDH release toxicity assay in cultured CHO AA8 cells; format: cell-based; conditions: 1 hour incubation, read-out: LC50 (the source's name)
Description: Various DP-BFA molecules were screened in cultured Chinese hamster ovary (CHO) AA8 cell line in order to establish their toxicity. LC50 values, i.e. the concentrations causing death in 50% of cell population, were calculated from dose response curves. LC50 values of phospho-BFAs were compared to those of the corresponding branched fatty acids (=carbo-BFAs).
Lactate dehydrogenase (LDH) release was used as an assay for the integrity of the cells membrane and, thus, for estimation of toxicity. Cells (2×10^5/ml) were seeded (150 μl/well) in 96 well plates, in RPMI-1640 medium containing 10% FCS. After two days, tested DP-BFA compounds or the control compound myristic acid were added to the plates in declining concentrations ranging from 500 to 1 μg/ml. Cells were harvested after one hour. […] Other controls included, two blank wells and five wells containing cells with no additional drugs. Following centrifugation (1500 rpm, 5 min), 75 μl of the supernatant was transferred to a new plate with 45 μl of an LDH assay mix (Tox-7 kit, Sigma). After 10–20 minutes at room temperature, absorbance was measured using an Elisa Reader 490 nm.
Each experiment was performed in triplicate.

[11] = format: in vivo; conditions: rats, sodium salt
Description: DP-BFA molecules were evaluated for safety and toxicity. Increasing doses of the tested compounds were administered intra-arterially (i.a.) into rats following the protocol described above in Example 17. Animal viability was monitored for 24 hours to evaluate lethal concentrations (LC). LC is defined as the minimal concentration that caused death.
Safety index is defined as the ratio between the lethal dose (LC) and the minimal effective concentration (MEC), wherein MEC corresponds to a calculated concentration of the tested compound that elicits accumulation of three times the amount of Evans blue accumulated in control animals treated with vehicle only, i.e. total accumulation of 3 μg EB. The higher the LC/MEC ratio is, the higher the safety index.

[12] = Octanol/saline solubility and partition coefficient, shake-flask technique
Description: The lipophilicity values of various derivatives of branched fatty acids were estimated by comparing the solubility of these compounds in organic versus aqueous solutions. Octanol and physiological saline were used, respectively, as the organic and aqueous solutions. The partition coefficient (Pc) value, i.e. the octanol/saline distribution was measured by the shake-flask technique.

[13] = Table 6, rat brains, Evans blue extravasation, read-out: EQ50 (the source's name)

Molecule: 4-Octadecanyl phosphocholine [3,14-PC]
- EC50 [1]: 4 µM
- EC50 [2]: 72 µM
- EC50 [3]: 160 µM
- EC50 [4]: 7 µM

Molecule: CCCCCCCCCCCCC(CCC)OP(=O)([O-])[O-].[Na+].[Na+] (centres unmarked) [3,12-PO4Na2, 4-Hexadecanyl Disodium Phosphate]
- μg EB/g brain (at EC50) ([5]; Table 6, at EC50 (Mannitol at 25%), listed as 3,12-PO4-Na2): 20 ± 3 μg EB/g brain
- μg EB/g brain (at EC50) ([5]; Table 6, at EC50 (Mannitol at 25%), listed as 3,12-PO4—Na2): 20 μg EB/g brain
- MEC (minimal effective concentration) ([5]; Table 6): 3.3 ± 0.5 µM
- EC50 [5, 13]: 55 ± 1 µM
- EC50 [6]: > 200 µM
- % EB/g brain [7]: 2.9 ± 0.6%
- Brain fluorescein uptake (% of serum F-Na level) [7]: 8.2 ± 0.9 % of the F—Na level in the ser
- Ratio F-Na/EB (mean of individual ratios) [7]: 5.9 ± 1.0
- EC50 [1]: 90 µM
- EC50 [8]: 105 µM
- EC50 [9]: > 200 µM
- CC50 [10]: 320 µM

Molecule: CCCCCCCCCCCCC(CCC)C(=O)OCCOP(=O)([O-])[O-].[Na+].[Na+] (centres unmarked) [3,12-MEG-PO4Na2, 2-(2′-Propyltetradecanoyloxy)ethyl Disodium Phosphate]
- μg EB/g brain (at EC50) ([5]; Table 6, at EC50 (Mannitol at 25%)): 5 ± 1 μg EB/g brain
- MEC (minimal effective concentration) ([5]; Table 6): 11 ± 2 µM
- EC50 [5, 13]: 18 ± 3 µM
- EC50 [6]: > 200 µM
- % EB/g brain [7]: 0.8 ± 0.1%
- Brain fluorescein uptake (% of serum F-Na level) [7]: 5.0 ± 0.8 % of the F—Na level in the ser
- Ratio F-Na/EB (mean of individual ratios) [7]: 8.4 ± 0.9
- EC50 [1]: 75 µM
- EC50 [8]: 60 µM
- EC50 [9]: > 200 µM

Molecule: CCCCCCCCCCCCCCCCCCC(CCC)C(=O)OCCOCCOP(=O)([O-])OCC[N+](C)(C)C (centres unmarked) [3,18-DEG-PC, 2-(2′-Propyleicosanoyloxy)ethoxyethylphosphocholine]
- EC50 ([1]; Homo sapiens, U-937, 72 h): 6 µM
- EC50 ([2]; Homo sapiens, Primary bronchial epithelial cell, 72 h): 60 µM
- EC50 ([3]; Mus musculus, Bone marrow cell, 120 h): 80 µM
- EC50 ([4]; Homo sapiens, HL-60, 72 h): 13 µM

Molecule: CCCCCCCC(CCCCCCC)C(=O)[O-].[Na+] [7,7-Na, reference compound]
- μg EB/g brain (at EC50) ([5]; Table 5, at EC50): 4.2 ± 0.6 μg EB/g brain
- MEC (minimal effective concentration) ([5]; Table 5): 132 ± 19
- EC50 ([5]; Table 5, rat brain, intracarotid infusion, read-out: EC50 (Evans Blue extravasation)): 184 ± 21 µM
- MEC ([5]; Table 8, sodium salt, in µM): 132 ± 19
- LC (minimal concentration that caused death) ([11]; i.a., viability monitored 24 hours): 360 ± 67 µM
- Safety LC/MEC [11]: 2.7
- LogPc (octanol-saline partition coefficient) ([12]; octanol/physiological saline, sodium salts): 1.33
- Water mg/ml (solubility in aqueous solution) ([12]; physiological saline as aqueous solution, sodium salts): >25 mg/mL
- Octanol mg/ml (solubility in octanol) ([12]; sodium salts of the branched fatty acids and their PO4 derivatives): >50 mg/mL
- CC50 [10]: 65 µM

Molecule: CCCCCCCC(CCCCCCC)OP(=O)(O)O [7,7-PO4Na2, 8-Pentadecanyl Disodium Phosphate]
- CC50 [10]: 320 µM

— patent US7186703B2, “Derivatives of branched-chain lipophilic molecules and uses thereof” (D-Pharm Ltd., priority 2000, dated 2007)
